Values quoted from earlier work, collected in patent US11702444B2, “Method for preparing natural bioactive peptide Tubulysin U” (Shenzhen Institute of Geriatrics, priority 2020, dated 2023).

Experiments:
[1] = system: MCF-7 breast cancer cells; conditions: antiproliferative activity in vitro
1A9 ovarian cancer cells = conditions: antiproliferative activity in vitro

CC[C@H](C)[C@H](NC(=O)[C@H]1CCCCN1C)C(=O)N[C@H](C[C@@H](OC(C)=O)c1nc(C(=O)N[C@@H](Cc2ccccc2)C[C@H](C)C(=O)O)cs1)C(C)C [Tubulysin U]
IC50 [1]: 0.4 nM | IC50 (1A9 ovarian cancer cells): 0.65 nM
